“And” between values parts separate entries of the source, which are not always exact repeats. Equal values may be shown once.
Tests used:
[1] = system: acetic acid-induced writhing; assay: Analgesia, acetic acid writhing in mice (Example 3); type: in vivo, mouse; settings: 100 mg/kg PO
Protocol: 3-Hydroxyanthranilic acid was evaluated for possible analgesic activity in mouse acetic acid-induced pain response assay.
3-Hydroxyanthranilic acid was purchased from Sigma (USA) by MDS Pharma Services-Taiwan Ltd. and administered orally at the doses of 400, 200 and 100 mg/kg for analgesia, acetic acid-induced writhing assay. 2% Tween 80 was used as the vehicle.
Male CD-1 (Crl.) mice provided by BioLasco Taiwan (under Charles River Laboratories Technology Licensee) were used. Space allocation for 10 animals was 29×18×13 cm. All animals were maintained in a controlled temperature (23° C.-24° C.) and humidity (60%-70%) environment with 12 hours light dark cycles for at least one week in MDS Pharma Services—Taiwan Laboratory prior to use. Free access to standard lab chow for Mice (LabDiet Rodent Diet, PMI Nutrition International, USA) and tap water was granted. All aspects of this work including housing, experimentation and disposal of animals were performed in general accordance with the Guide for the Care and Use of Laboratory Animals (National Academy Press, Washington, D.C., 1996).
Test substance was administered orally to groups of 5 CD-1 (Crl.) derived male or female mice weighing 24±2 g, 2 hour before injection of acetic acid (0.5%, 20 ml/kg IP). Reduction in the number of writhes by 50 percent or more (≧50%) per group of animals observed during the 5 to 10 minute period after acetic acid administration, relative to a vehicle-treated control group, indicates possible analgesic activity.
Test substance was administered orally to groups of 5 mice 1 hour before injection of 0.5% Acetic Acid (20 ml/kg IP). The number of writhing per group of animals observed during the 5 to 10 minute period after acetic acid challenge was observed. Reduction in the number of writhing by 50 percent or more (≧50%) relative to the vehicle-treated control group indicates possible analgesic activity.

[2] = system: acetic acid-induced writhing; assay: Analgesia, acetic acid writhing in mice (Assay #503900, Example 1); type: in vivo, mouse; settings: 30 mg/kg PO, 60 minutes before acetic acid
[3] = patients in a colorectal adenoma prevention trial; cited from earlier work
[4] = similar adenoma prevention trial; cited from earlier work
[5] = short-term use following coronary artery by-pass surgery; cited from earlier work

CC(=O)Oc1ccccc1C(=O)O [Aspirin]
No. of Writhing Average ([1]; group of 5 mice): 5
% Inhibition ([1]; relative to vehicle control): (62) %
No. of Writhing Individual ([1]; single mice): 0 and 8 and 3 and 7 and 9

CC(C)Cc1ccc(C(C)C(=O)O)cc1 (stereo not shown) [Ibuprofen]
No. of Writhing Average ([2]; group of 5 mice): 8
% Inhibition ([2]; relative to vehicle control): (53) %
No. of Writhing Individual ([2]; single mice): 6 and 8 (2×) and 10 (2×)

CS(=O)(=O)c1ccc(C2=C(c3ccccc3)C(=O)OC2)cc1 [Rofecoxib, rofecoxib]
risk of heart attacks or strokes [3]: double the risk

Cc1ccc(-c2cc(C(F)(F)F)nn2-c2ccc(S(N)(=O)=O)cc2)cc1 [celecoxib]
risk of adverse cardiovascular events [4]: triple the risk

CCC(=O)NS(=O)(=O)c1ccc(-c2c(-c3ccccc3)noc2C)cc1 [parecoxib]
incidence of cardiovascular events [5]: increased incidence

Cc1onc(-c2ccccc2)c1-c1ccc(S(N)(=O)=O)cc1 [valdecoxib]
incidence of cardiovascular events [5]: increased incidence

Reference: patent US20090197957A1, “Methods and compositions for the treatment of pain” (Nuon Therapeutics, Inc., priority 2005, published 2009)
